Measurements reported in ChEMBL document CHEMBL3044670, “Aromatic sulfonyl hydrazides and sulfonyl hydrazones: antimicrobial activity and physical properties” (2013).
≈ marks a conversion by molar mass, not a printed value. Values belong to the compound of their own block, whether it stands above or below them.

Key:
[1] = test system: Bacillus subtilis; experiment: Antibacterial activity against Bacillus subtilis ATCC 6633 at 140 ug/disk after 18 to 24 hr by disk diffusion method; format: functional; details: read-out: DIZ
[2] = test system: Candida albicans; experiment: Antifungal activity against Candida albicans ATCC 90028 at 140 ug/disk after 18 to 24 hr by disk diffusion method; format: functional; details: read-out: DIZ
[3] = test system: Bacillus cereus; experiment: Antibacterial activity against Bacillus cereus ATCC 11778 after 18 to 24 hr by broth microdilution method; format: functional
[4] = test system: Staphylococcus epidermidis; experiment: Antibacterial activity against Staphylococcus epidermidis ATCC 12228 at 140 ug/disk after 18 to 24 hr by disk diffusion method; format: functional; details: read-out: DIZ
[5] = test system: Enterococcus faecalis; experiment: Antibacterial activity against Enterococcus faecalis ATCC 29212 after 18 to 24 hr by broth microdilution method; format: functional
[6] = test system: Escherichia coli; experiment: Antibacterial activity against Escherichia coli ATCC 25922 after 18 to 24 hr by broth microdilution method; format: functional
[7] = test system: Staphylococcus aureus; experiment: Antibacterial activity against Staphylococcus aureus ATCC 25923 after 18 to 24 hr by broth microdilution method; format: functional
[8] = test system: Klebsiella pneumoniae; experiment: Antibacterial activity against Klebsiella pneumoniae ATCC 13883 after 18 to 24 hr by broth microdilution method; format: functional
[9] = test system: Pseudomonas aeruginosa; experiment: Antibacterial activity against Pseudomonas aeruginosa ATCC 27853 at 140 ug/disk after 18 to 24 hr by disk diffusion method; format: functional; details: read-out: DIZ
[10] = test system: Bacillus subtilis; experiment: Antibacterial activity against Bacillus subtilis ATCC 6633 after 18 to 24 hr by broth microdilution method; format: functional
[11] = test system: Bacillus cereus; experiment: Antibacterial activity against Bacillus cereus ATCC 11778 at 140 ug/disk after 18 to 24 hr by disk diffusion method; format: functional; details: read-out: DIZ
[12] = test system: Escherichia coli; experiment: Antibacterial activity against Escherichia coli ATCC 25922 at 140 ug/disk after 18 to 24 hr by disk diffusion method; format: functional; details: read-out: DIZ
[13] = test system: Pseudomonas fluorescens; experiment: Antibacterial activity against Pseudomonas fluorescens ATCC 49838 at 140 ug/disk after 18 to 24 hr by disk diffusion method; format: functional; details: read-out: DIZ
[14] = test system: Enterococcus faecalis; experiment: Antibacterial activity against Enterococcus faecalis ATCC 29212 at 140 ug/disk after 18 to 24 hr by disk diffusion method; format: functional; details: read-out: DIZ
[15] = test system: Staphylococcus epidermidis; experiment: Antibacterial activity against Staphylococcus epidermidis ATCC 12228 after 18 to 24 hr by broth microdilution method; format: functional
[16] = test system: Pseudomonas fluorescens; experiment: Antibacterial activity against Pseudomonas fluorescens ATCC 49838 after 18 to 24 hr by broth microdilution method; format: functional
[17] = test system: Klebsiella pneumoniae; experiment: Antibacterial activity against Klebsiella pneumoniae ATCC 13883 at 140 ug/disk after 18 to 24 hr by disk diffusion method; format: functional; details: read-out: DIZ
[18] = test system: Candida albicans; experiment: Antifungal activity against Candida albicans ATCC 90028 after 18 to 24 hr by broth microdilution method; format: functional
[19] = test system: Pseudomonas aeruginosa; experiment: Antibacterial activity against Pseudomonas aeruginosa ATCC 27853 after 18 to 24 hr by broth microdilution method; format: functional
[20] = test system: Klebsiella aerogenes; experiment: Antibacterial activity against Enterobacter aerogenes ATCC 13048 at 140 ug/disk after 18 to 24 hr by disk diffusion method; format: functional; details: read-out: DIZ
[21] = test system: Staphylococcus aureus; experiment: Antibacterial activity against Staphylococcus aureus ATCC 25923 at 140 ug/disc after 18 to 24 hr by disk diffusion method; format: functional; details: read-out: DIZ
[22] = test system: Klebsiella aerogenes; experiment: Antibacterial activity against Enterobacter aerogenes ATCC 13048 after 18 to 24 hr by broth microdilution method; format: functional
[23] = test system: Pseudomonas aeruginosa; experiment: Antibacterial activity against Pseudomonas aeruginosa ATCC 27853 at 40 ug/disk after 18 to 24 hr by disk diffusion method; format: functional; details: read-out: DIZ
[24] = test system: Klebsiella aerogenes; experiment: Antibacterial activity against Enterobacter aerogenes ATCC 13048 at 40 ug/disk after 18 to 24 hr by disk diffusion method; format: functional; details: read-out: DIZ
[25] = test system: Pseudomonas fluorescens; experiment: Antibacterial activity against Pseudomonas fluorescens ATCC 49838 at 40 ug/disk after 18 to 24 hr by disk diffusion method; format: functional; details: read-out: DIZ
[26] = test system: Staphylococcus epidermidis; experiment: Antibacterial activity against Staphylococcus epidermidis ATCC 12228 at 40 ug/disk after 18 to 24 hr by disk diffusion method; format: functional; details: read-out: DIZ
[27] = test system: Bacillus subtilis; experiment: Antibacterial activity against Bacillus subtilis ATCC 6633 at 40 ug/disk after 18 to 24 hr by disk diffusion method; format: functional; details: read-out: DIZ
[28] = test system: Enterococcus faecalis; experiment: Antibacterial activity against Enterococcus faecalis ATCC 29212 at 40 ug/disk after 18 to 24 hr by disk diffusion method; format: functional; details: read-out: DIZ
[29] = test system: Candida albicans; experiment: microbe, parasite or virus in culture; details: ATCC 90028, read-out: DIZ
Description: Antifungal activity against Candida albicans ATCC 90028 at 40 ug/disk after 18 to 24 hr by disk diffusion method

[30] = test system: Bacillus cereus; experiment: Antibacterial activity against Bacillus cereus ATCC 11778 at 40 ug/disk after 18 to 24 hr by disk diffusion method; format: functional; details: read-out: DIZ
[31] = test system: Staphylococcus aureus; experiment: Antibacterial activity against Staphylococcus aureus ATCC 25923 at 40 ug/disc after 18 to 24 hr by disk diffusion method; format: functional; details: read-out: DIZ
[32] = test system: Escherichia coli; experiment: Antibacterial activity against Escherichia coli ATCC 25922 at 40 ug/disk after 18 to 24 hr by disk diffusion method; format: functional; details: read-out: DIZ
[33] = test system: Klebsiella pneumoniae; experiment: Antibacterial activity against Klebsiella pneumoniae ATCC 13883 at 40 ug/disk after 18 to 24 hr by disk diffusion method; format: functional; details: read-out: DIZ
[34] = test system: Staphylococcus epidermidis; experiment: Antibacterial activity against Staphylococcus epidermidis ATCC 12228 at 30 ug/disk after 18 to 24 hr by disk diffusion method; format: functional; details: read-out: DIZ
[35] = test system: Pseudomonas fluorescens; experiment: Antibacterial activity against Pseudomonas fluorescens ATCC 49838 at 30 ug/disk after 18 to 24 hr by disk diffusion method; format: functional; details: read-out: DIZ
[36] = test system: Bacillus cereus; experiment: Antibacterial activity against Bacillus cereus ATCC 11778 at 30 ug/disk after 18 to 24 hr by disk diffusion method; format: functional; details: read-out: DIZ
[37] = test system: Klebsiella pneumoniae; experiment: Antibacterial activity against Klebsiella pneumoniae ATCC 13883 at 30 ug/disk after 18 to 24 hr by disk diffusion method; format: functional; details: read-out: DIZ
[38] = test system: Enterococcus faecalis; experiment: Antibacterial activity against Enterococcus faecalis ATCC 29212 at 30 ug/disk after 18 to 24 hr by disk diffusion method; format: functional; details: read-out: DIZ
[39] = test system: Staphylococcus aureus; experiment: Antibacterial activity against Staphylococcus aureus ATCC 25923 at 30 ug/disk after 18 to 24 hr by disk diffusion method; format: functional; details: read-out: DIZ
[40] = test system: Candida albicans; experiment: Antifungal activity against Candida albicans ATCC 90028 at 30 ug/disk after 18 to 24 hr by disk diffusion method; format: functional; details: read-out: DIZ
[41] = test system: Bacillus subtilis; experiment: Antibacterial activity against Bacillus subtilis ATCC 6633 at 30 ug/disk after 18 to 24 hr by disk diffusion method; format: functional; details: read-out: DIZ
[42] = test system: Pseudomonas aeruginosa; experiment: Antibacterial activity against Pseudomonas aeruginosa ATCC 27853 at 30 ug/disk after 18 to 24 hr by disk diffusion method; format: functional; details: read-out: DIZ
[43] = test system: Klebsiella aerogenes; experiment: Antibacterial activity against Enterobacter aerogenes ATCC 13048 at 30 ug/disk after 18 to 24 hr by disk diffusion method; format: functional; details: read-out: DIZ
[44] = test system: Escherichia coli; experiment: Antibacterial activity against Escherichia coli ATCC 25922 at 30 ug/disk after 18 to 24 hr by disk diffusion method; format: functional; details: read-out: DIZ

MIC [3]: 250 mg/L (≈ 892 µM)
MIC [5]: 1000 mg/L (≈ 3570 µM)
MIC [6]: 125 mg/L (≈ 446 µM)
MIC [7]: 250 mg/L (≈ 892 µM)
MIC [8]: 125 mg/L (≈ 446 µM)
MIC [10]: 125 mg/L (≈ 446 µM)
MIC [15]: 125 mg/L (≈ 446 µM)
MIC [16]: 125 mg/L (≈ 446 µM)
MIC [18]: 1000 mg/L (≈ 3570 µM)
MIC [19]: 125 mg/L (≈ 446 µM)
MIC [22]: 250 mg/L (≈ 892 µM)
Compound: CN(/N=C/c1cccs1)S(=O)(=O)c1ccccc1
zone of inhibition at 140 µg/disc [1]: 24 mm
zone of inhibition at 140 µg/disc [2]: 0 mm
zone of inhibition at 140 µg/disc [4]: 15 mm
zone of inhibition at 140 µg/disc [9]: 24 mm
zone of inhibition at 140 µg/disc [11]: 25 mm
zone of inhibition at 140 µg/disc [12]: 17 mm
zone of inhibition at 140 µg/disc [13]: 25 mm
zone of inhibition at 140 µg/disc [14]: 0 mm
zone of inhibition at 140 µg/disc [17]: 21 mm
zone of inhibition at 140 µg/disc [20]: 17 mm
zone of inhibition at 140 µg/disc [21]: 12 mm

MIC [18]: 0.15 mg/L (≈ 0.36 µM)
Compound: Clc1ccc(COC(Cn2ccnc2)c2ccc(Cl)cc2Cl)c(Cl)c1 (stereo not drawn) [MICONAZOLE]
zone of inhibition at 40 µg/disc [23]: 0 mm
zone of inhibition at 40 µg/disc [24]: 0 mm
zone of inhibition at 40 µg/disc [25]: 0 mm
zone of inhibition at 40 µg/disc [26]: 0 mm
zone of inhibition at 40 µg/disc [27]: 0 mm
zone of inhibition at 40 µg/disc [28]: 0 mm
zone of inhibition at 40 µg/disc [29]: 26 mm
zone of inhibition at 40 µg/disc [30]: 0 mm
zone of inhibition at 40 µg/disc [31]: 0 mm
zone of inhibition at 40 µg/disc [32]: 0 mm
zone of inhibition at 40 µg/disc [33]: 0 mm

MIC [5]: 0.625 mg/L (≈ 1.41 µM)
MIC [6]: 0.075 mg/L (≈ 0.169 µM)
MIC [8]: 0.15 mg/L (≈ 0.338 µM)
MIC [10]: 0.075 mg/L (≈ 0.169 µM)
MIC [15]: 0.125 mg/L (≈ 0.281 µM)
MIC [16]: 0.125 mg/L (≈ 0.281 µM)
MIC [19]: 0.125 mg/L (≈ 0.281 µM)
MIC [22]: 0.15 mg/L (≈ 0.338 µM)
Compound: CN(C)[C@@H]1C(O)=C(C(N)=O)C(=O)[C@@]2(O)C(O)=C3C(=O)c4c(O)cccc4[C@@](C)(O)[C@H]3C[C@@H]12 [TETRACYCLINE]
zone of inhibition at 30 µg/disc [34]: 19 mm
zone of inhibition at 30 µg/disc [35]: 19 mm
zone of inhibition at 30 µg/disc [36]: 19 mm
zone of inhibition at 30 µg/disc [37]: 12 mm
zone of inhibition at 30 µg/disc [38]: 0 mm
zone of inhibition at 30 µg/disc [39]: 0 mm
zone of inhibition at 30 µg/disc [40]: 0 mm
zone of inhibition at 30 µg/disc [41]: 26 mm
zone of inhibition at 30 µg/disc [42]: 23 mm
zone of inhibition at 30 µg/disc [43]: 0 mm
zone of inhibition at 30 µg/disc [44]: 23 mm
